US20220152077A1 (THE UNIVERSITY OF WARWICK, priority 2019, published 2022)
“Also recorded” adds a separate entry of the source. Like-named read-outs stand apart in the source and are kept apart here.

Legend:
[1] = test system: synaptic transmission in the hippocampus; assay: Extracellular fEPSP recording in hippocampal slices (synaptic transmission); format: cell-based, rat
Description: (§1) Preparation of hippocampal slices: Sagittal slices of hippocampus (300-400 μm) were prepared from male Sprague Dawley rats, at postnatal days 12 to 20. Rats were kept on a 12-hour light-dark cycle with slices made 90 minutes after entering the light cycle. […] The brain was removed, cut down the mid line and the two sides of the brain stuck down to a metal base plate. […] Slices were stored at 34° C. for 1 to 6 hours in aCSF (1 mM MgCl2, 2 mM CaCl2) before use.
Extracellular recording: A slice was transferred to the recording chamber, submerged in aCSF and perfused at 4 to 6 mL/min (32° C.). The slice was placed on a grid allowing perfusion above and below the tissue and all tubing was gas tight (to prevent loss of oxygen). For extracellular recording, an aCSF filled microelectrode was placed on the surface of stratum radiatum in CA1. […] For fEPSPs a 10 to 20 minute baseline was recorded at a stimulus intensity that gave 40 to 50% of the maximal response. […] For fEPSP slope, a 1 ms linear region after the fibre volley was measured. Extracellular recordings were made independently on two electrophysiology rigs.
Statistical significance was tested using the unpaired t-test and one-way and two-way ANOVAs with Bonferroni correction for multiple comparisons.
(§2) Data Analysis. […] Statistical significance was tested as indicated in the text using paired or unpaired t-tests or one-way or two-way ANOVAs with repeated measures (RM) as appropriate. Bonferroni corrections for multiple comparisons were performed. All in vitro cell signalling assay data was analysed using Prism 7.0e (Graphpad software, San Diego, Calif.), with all concentration-response curves being fitted using a 3 parameter logistic equation to calculate response range and IC50. All cAMP data was normalised to a forskolin concentration-response curve ran in parallel to each assay. […] Radioligand displacement curves were fitted to the one-site competition binding equation yielding log Ki values. […] To determine the extent of ligand-induced recruitment of β-arrestin2-YFP to either the A1R or A3R, the BRET signal was calculated by subtracting the 530 nm/450 nm emission for vehicle-treated cells from ligand-treated cells (ligand-induced ΔBRET). ΔBRET for each concentration at 5 minutes (maximum response) was used to produce concentration-response curves.

Goa = format: cell-based, human; settings: PTX-treated cells
Description: Cells were then incubated for 24 hours before addition of 100 ng/ml PTX, to inhibit activity of endogenous Gαi/o, and then incubated for a further 16-18 hours. Transfected cells were then assayed as per cAMP inhibition experiments, but co-stimulated with agonist and 100 nM forskolin.
as §2

[2] = test system: seizure activity induced in hippocampal slices; assay: Seizure model in hippocampal slices (no added Mg2+, 6 mM K+ aCSF); format: cell-based, rat; settings: adenosine 20-100 μM, NECA 300 nM, CPA 300 nM, BnOCPA 300 nM to 1 μM
Description: as §1
Seizure model: Seizure activity was induced in hippocampal slices using aCSF which contained no added Mg^2+ and with the total K^+ concentration increased to 6 mM with KCl. Removal of extracellular Mg^2+ facilitates NMDA receptor activation producing long lasting EPSPS, which can sum together to produce tonic activation. Increasing the extracellular concentration of K^+ depolarises neurons leading to firing and release of glutamate to sustain activity. Both the increase in K^+ concentration and removal of Mg^2+ are required to produce spontaneous activity in hippocampal slices. Spontaneous activity was measured with an aCSF-filled microelectrode placed within stratum radiatum in CA1.

[3] = test system: membrane potential of pyramidal cells; assay: Whole cell current clamp recording of membrane potential, CA1 pyramidal cells; format: cell-based, rat
Description: as §1
Whole cell patch clamp recording from hippocampal pyramidal cells: A slice was transferred to the recording chamber and perfused at 3 mL/min with aCSF at 32±0.5° C. Slices were visualised using IR-DIC optics with an Olympus BX151W microscope (Scientifica) and a CCD camera (Hitachi). […] Voltage and current recordings were obtained using an Axon Multiclamp 700B amplifier (Molecular Devices, USA) and digitised at 20 KHz. Data acquisition and analysis was performed using Pclamp 10 (Molecular Devices). For voltage clamp experiments, CA1 pyramidal cells were held at −60 mV. Peptides to interfere with G protein signalling were introduced via the patch pipette into the recorded cell.

[4] = test system: adenosine-induced outward current in CA1 pyramidal cells; assay: Whole-cell voltage clamp, adenosine-induced outward current with G protein interfering peptides; format: cell-based, rat; settings: for mean amplitude of the adenosine-induced outward current with intracellular peptide: peptide 100 μM via patch pipette
Description: Whole cell patch clamp recording from hippocampal pyramidal cells: A slice was transferred to the recording chamber and perfused at 3 mL/min with aCSF at 32±0.5° C. Slices were visualised using IR-DIC optics with an Olympus BX151W microscope (Scientifica) and a CCD camera (Hitachi). Whole-cell current clamp recordings were made from pyramidal cells in area CA1 of the hippocampus using patch pipettes (5 to 10 MΩ) manufactured from thick walled glass (Harvard Apparatus, Edenbridge UK) and containing (mM): potassium gluconate 135, NaCl 7, HEPES 10, EGTA 0.5, phosphocreatine 10, MgATP 2, NaGTP 0.3 and biocytin 1 mg/mL (290 mOSM, pH 7.2). Voltage and current recordings were obtained using an Axon Multiclamp 700B amplifier (Molecular Devices, USA) and digitised at 20 KHz. Data acquisition and analysis was performed using Pclamp 10 (Molecular Devices). For voltage clamp experiments, CA1 pyramidal cells were held at −60 mV. Peptides to interfere with G protein signalling were introduced via the patch pipette into the recorded cell. […].
Drugs: Drugs were made up as stock solutions (1 to 10 mM) and then diluted in aCSF on the day of use. Compounds were dissolved in dimethyl-sulphoxide (DMSO, 0.01% final concentration of DMSO). […]. Peptides for interfering with G protein signalling were obtained from Hello Bio (Bristol, UK) and were based on published sequences (Varani et al., Adv Exp Med Biol 1051, 193-232 (2017)). […] The scrambled version was […]. […] Peptides were made up as stock solutions (2 mM) and stored at −20° C. The stock solutions were dissolved in filtered intracellular solution just before use.

isolated frog heart = assay: Frog heart preparation, heart rate; parameters: species or system Xenopus leavis
Description: Frog heart preparation: Xenopus […] frogs (young adult males) were supplied from Portsmouth Xenopus Resource Centre. Frogs were euthanized with MS222 (0.2% at a pH of 7), decapitated and pithed. The animals were dissected to reveal the heart and the pericardium carefully removed. Heart contractions were measured with a force transducer (AD instruments). Heart rate was acquired via a PowerLab […] (AD instruments) controlled by LabChart 7 (AD instruments). The heart was regularly washed with ringer and drugs were applied directly to the heart.

[5] = test system: urethane-anaesthetised, spontaneously breathing adult rats; assay: In vivo anaesthetised rat preparation, heart rate and mean arterial blood pressure
[6] = rat hippocampal slices, CA1, read-out: IC50, inhibition of synaptic transmission (fEPSP slope)
[7] = IV, adenosine 1 mg·kg^−1, BnOCPA 10 μg·kg^−1, CPA 420 ng·kg^−1

## Cn1c(=O)c2[nH]c(C3CCCC3)nc2n(C)c1=O [8-CPT, 8-cyclopentyltheophylline]
[1]; 8-CPT 2 μM (adenosine) or 4 μM (BnOCPA)
  effect of the A1 receptor antagonist on agonist inhibition of synaptic transmission: reversed the inhibition of synaptic transmission caused by adenosine

## OC[C@H]1O[C@@H](n2cnc3c(N[C@@H]4CCC[C@H]4O)ncnc32)[C@H](O)[C@@H]1O [HOCPA]
Goa
  activation of / coupling to Goa: coupled to a range of Gi/o subunits, and in particular Goa

## CCNC(=O)[C@H]1O[C@@H](n2cnc3c(N)ncnc32)[C@H](O)[C@@H]1O [NECA, 5′-(N-Ethylcarboxamido) adenosine]
[1]; [6]
  IC50: 0.0083 ± 0.003 µM
[2]
  effect on seizure activity: rapidly and reversibly abolished seizure activity; also recorded: blocks seizure activity in a reversible manner
Goa
  activation of / coupling to Goa: coupled to a range of Gi/o subunits, and in particular Goa

## Nc1ncnc2c1ncn2[C@@H]1O[C@H](CO)[C@@H](O)[C@H]1O [adenosine]
[1]; Rattus norvegicus, read-out: IC50, inhibition of synaptic transmission by adenosine with 8-CPT, in the presence of 2 μM 8-CPT
  IC50: 125 ± 10 µM
[1]; [6]
  IC50: 20 ± 4.3 µM
[2]
  effect on seizure activity: reversibly blocks seizure activity
[2]; listed as Adenosine
  effect on seizure activity: rapidly and reversibly abolished seizure activity
[3]; adenosine 100 μM, CPA 300 nM
  membrane potential after agonist: −74.1±1.5 mV
[3]; adenosine 100 μM, CPA 300 nM, BnOCPA 300 nM-1 μM
  mean change of membrane potential (hyperpolarisation): −4.7±0.5 mV
[4]; adenosine 10 μM, control conditions, held at −60 mV
  mean amplitude of the outward current induced by adenosine: 43.9±3.1 pA
Isolated frog heart; adenosine 30 μM
  reduction of heart rate: about 15%
Isolated frog heart; adenosine 30 μM after BnOCPA 300 nM
  reduction of heart rate by adenosine following BnOCPA: 0.27±0.2 BPM
Isolated frog heart; adenosine 30 μM, BnOCPA 300 nM, CPA
  reduction / change of heart rate: 6.25±0.6 BPM
Isolated frog heart; adenosine 30 μM, from 42±1.2 BPM
  heart rate after application: 35.5±1.2 BPM
[5]; IV co-injection
  MAP after adenosine co-injected with BnOCPA: 51±4 mmHg
  change of HR by adenosine co-injected with BnOCPA: about 12%
  mean change of HR by adenosine co-injected with BnOCPA: 51±4 BPM
[5]; [7]
  change of HR: about 66%
  heart rate (HR) after injection: 147±12 BPM
  mean arterial blood pressure (MAP) after injection: 46±4 mmHg
[5]; adenosine IV
  reduction of MAP: about 47%
[5]; single anaesthetised rat preparation, IV
  effect on HR and BP: HR and BP depression

## NCC(CC(=O)O)c1ccc(Cl)cc1 (stereo not drawn) [baclofen]
[3]; BnOCPA 300 nM
  mean hyperpolarisation produced by baclofen in the presence of BnOCPA: 6.5±0.43 mV
[3]; baclofen (10 µM), BnOCPA 300 nM, from −67 mV
  membrane potential after baclofen in the presence of BnOCPA (example): −74 mV
[3]; without BnOCPA
  mean hyperpolarisation produced by baclofen in control conditions: 6.3±0.76 mV

## Goa interfering peptide: peptide interfering with G protein signalling, sequence MGIANNLRGCGLY
[4]
  effect of peptide on adenosine-induced outward current: caused a significant attenuation of the adenosine-induced outward current
[4]; adenosine 10 μM
  mean amplitude of the adenosine-induced outward current with intracellular peptide: 20.9±3.6 pA

## Gob interfering peptide: peptide interfering with G protein signalling, sequence MGIQNNLKYIGIC
[4]
  effect of peptide on adenosine-induced outward current: neither the scrambled peptide nor the Gob peptide had any effect on current amplitude
[4]; adenosine 10 μM
  mean amplitude of the adenosine-induced outward current with intracellular peptide: 37.4±2.2 pA

## scrambled peptide: scrambled version of the Goa peptide, sequence LNRGNAYLCIGMG
[4]
  effect of peptide on adenosine-induced outward current: neither the scrambled peptide nor the Gob peptide had any effect on current amplitude
[4]; adenosine 10 μM
  mean amplitude of the adenosine-induced outward current with intracellular peptide: 43.4±2.4 pA
